Test [1] relates to allergic reactions induced by the antigen-antibody interaction. Nature of the test: PCA test (Ovary), antiallergic activity on rats. The format is in vivo. Particulars: for ED50: Rattus norvegicus, iv, rats. The procedure: The test is carried out by the PCA test-method (Ovary: J. Immun. 81, 355, 1958) and the Church-test (British J. Pharm. 46, 56-66, 1972; Immunology 29, 527-534, 1975) and as a reference substance disodium chromoglycate is used. The test was carried out on rats.

Test [2] has as its system allergic symptoms. The following applies: oral / inhaler; background statement; cited from earlier work.

Each structure is given as a SMILES string.

As for `CCOc1ccc(NN=C2CCC(C)n3c2ncc(C(=O)O)c3=O)cc1` (racemic) [(±)-9-(4-ethoxyphenyl-hydrazono)-6-methyl-4-oxo-6,7,8,9-tetrahydro-4H--pyrido[1,2-a]pyrimidine-3-carboxylic acid], the ED50 – broadly, the dose at which the effect has come halfway, by size or by number of responders – in test [1] was found to be 0.87 µmol/kg. On to `Cc1cccc(NN=C2CCC(C)n3c2ncc(C(=O)O)c3=O)c1` (centres unmarked) [6-methyl-9-(3-methylphenyl-hydrazono)-4-oxo-6,7,8,9-tetrahydro-4H--pyrido[1,2-a]-pyrimidine-3-carboxylic acid], for which, in test [1], it took a dose of 0.42 µmol/kg to reach the 50% effect level (ED50). On the same count and under the same terms, the same measure for `CC1CCC(=NNc2cccc([N+](=O)[O-])c2)c2ncc(C(=O)O)c(=O)n21` (centres unmarked) [6-methyl-9-(3-nitrophenyl-hydrazono-4-oxo-6,7,8,9-tetrahydro-4H--pyrido[1,2-a]-pyrimidine-3-carboxylic acid]: 0.52 µmol/kg.

In turn, `CC1CCC(=NNc2cccc(Cl)c2)c2ncc(C(=O)O)c(=O)n21` (centres unmarked) [9-(3-chlorophenylhydrazono)-6-methyl-4-oxo-6,7,8,9-tetrahydro-4H--pyrido[1,2-a]-pyrimidine-3-carboxylic acid] yielded a median effective dose (ED50) in test [1] of 0.61 µmol/kg. `CC1CCC(=NNc2ccc(Br)cc2)c2ncc(C(=O)O)c(=O)n21` (centres unmarked) [9-(4-bromophenylhydrazono)-6-methyl-4-oxo-6,7,8,9-tetrahydro-4H--pyrido[1,2-a]-pyrimidine-3-carboxylic acid] had an ED50 in test [1] of 0.82 µmol/kg.

Consider `CC1CCC(=NNc2ccc(C(=O)O)cc2)c2ncc(C(=O)O)c(=O)n21` (centres unmarked) [9-(4-carboxyphenyl-hydrazono)-6-methyl-4-oxo-6,7,8,9-tetrahydro-4H--pyrido[1,2-a]pyrimidine-3-carboxylic acid], for which, in test [1], the ED50 is 7.6 µmol/kg. As to `O=C(O)c1cc(=O)c2c(OCC(O)COc3cccc4oc(C(=O)O)cc(=O)c34)cccc2o1` [Disodium chromoglycate, 1,3-bis-(2-carboxychromon-6-yl-ox)-2-hydroxypropane, reference compound], the “oral activity (PCA test data, in words)” value in test [1] (oral versus i.v.) is listed as “effective only when administered intravenously”. Besides, the “effectiveness by route (antiasthmatic agent, in words)” value in test [2] was “not effective orally and it produces the desired effect only by using an inhaler”.

(Values after patent US4456752A, “Process for the preparation of 9-hydrazono-6,7,8,9-tetrahydro-4H-pyro[1,2-a]pyrimidine-4-one compounds, the salts and hydrates thereof” (Chinoin Gyogyszer es Vegyeszeti Termekek Gyara R.T., priority 1979, dated 1984).)
